From ChEMBL document CHEMBL5576104, “Design, synthesis, and anti-melanogenic efficacy of 2-mercaptobenzoxazoles with nanomolar tyrosinase activity inhibition” (Bioorg Med Chem, 2024)
Active and inactive are the calls of the source. The rule behind the calls is not given here.

Assays:
[1] = Antioxidant activity assessed as ABTS radical scavenging activity at 100 uM preincubated under dark condition for 2 mins and measured every 1 min for 10 mins by absorbance based microplate reader analysis relative to control; type: functional; details: time 12.0 min
[2] = molecular target: T1, Mushroom tyrosinase (Agaricus bisporus, UniProt O42713+Q00024+C7FF04+C7FF05); assay: Inhibition of mushroom tyrosinase using L-DOPA as substrate incubated for 30 mins by absorbance based microplate reader analysis; type: protein assay
[3] = Cytotoxicity against human HaCaT cells assessed as cell viability at 20 uM incubated for 24 hrs by EZ-Cytox assay relative to control; type: toxicity, cell-based; details: read-out: Activity
[4] = molecular target: T1, Mushroom tyrosinase; assay: Inhibition of mushroom tyrosinase using L-tyrosine as substrate incubated for 30 mins by absorbance based microplate reader analysis; type: protein assay
[5] = test system: B16-F10; assay: Cytotoxicity against mouse B16-F10 cells assessed as reduction in cell viability at <=20 uM incubated for 72 hrs by EZ-Cytox assay; type: toxicity, cell-based; details: b16-f10, 72 h
[6] = test system: HaCaT; assay: Cytotoxicity against human HaCaT cells assessed as reduction in cell viability at 5 to 20 uM incubated for 24 hrs by EZ-Cytox assay; type: toxicity, cell-based; details: dose 5-20 µM
[7] = test system: B16-F10; assay: Antimelanogenic activity against IBMX/[…] stimulated mouse B16-F10 cells assessed as reduction in intracellular melanin content preincubated for 1 hr followed by IBMX/[…] addition and measured after 72 hrs by microplate reader analysis; type: functional, cell-based; details: dose 5-20 µM, time 73.0 hrs
[8] = molecular target: T2, Tyrosinase (Mus musculus) (UniProt P11344); assay: Inhibition of tyrosinase activity in IBMX/[…] stimulated mouse B16-F10 cells preincubated for 1 hr followed by IBMX/[…] addition and measured after 72 hrs by microplate reader assay; type: cell-based; details: dose 5-20 µM, time 73.0 hrs
T2 sequence (whole entry): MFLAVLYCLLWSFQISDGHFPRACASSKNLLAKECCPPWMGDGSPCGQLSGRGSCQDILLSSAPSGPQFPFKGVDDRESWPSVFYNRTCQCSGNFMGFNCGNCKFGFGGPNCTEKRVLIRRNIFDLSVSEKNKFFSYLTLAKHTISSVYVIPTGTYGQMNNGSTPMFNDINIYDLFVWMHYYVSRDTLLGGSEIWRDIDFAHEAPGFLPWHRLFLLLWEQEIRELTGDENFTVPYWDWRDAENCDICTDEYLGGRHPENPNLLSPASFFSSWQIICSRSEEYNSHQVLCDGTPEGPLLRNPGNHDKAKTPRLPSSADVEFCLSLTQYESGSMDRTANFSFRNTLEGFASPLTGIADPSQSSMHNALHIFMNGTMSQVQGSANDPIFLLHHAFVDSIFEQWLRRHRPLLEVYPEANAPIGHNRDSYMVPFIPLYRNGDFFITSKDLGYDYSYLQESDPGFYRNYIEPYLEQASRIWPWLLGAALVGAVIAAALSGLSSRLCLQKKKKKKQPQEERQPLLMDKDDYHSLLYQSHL

[9] = molecular target: T3, Mushroom tyrosinase (Agaricus bisporus) (UniProt O42713+Q00024+C7FF04+C7FF05); assay: Potency index, ratio of kojic acid IC50 to test compound IC50 for inhibition of mushroom tyrosinase using L-DOPA as substrate incubated for 30 mins by absorbance based microplate reader analysis; type: protein assay
[10] = Cytotoxicity against human HaCaT cells assessed as cell viability at 5 uM incubated for 24 hrs by EZ-Cytox assay relative to control; type: toxicity, cell-based; details: read-out: Activity
[11] = Cytotoxicity against human HaCaT cells assessed as cell viability at 10 uM incubated for 24 hrs by EZ-Cytox assay relative to control; type: toxicity, cell-based; details: read-out: Activity
[12] = molecular target: T1, Mushroom tyrosinase; assay: Binding affinity to mushroom tyrosinase using L-DOPA as substrate assessed as inhibition constant by Dixon plot analysis; type: protein assay
[13] = molecular target: T3, Mushroom tyrosinase (Agaricus bisporus); assay: Inhibition of mushroom tyrosinase using L-DOPA as substrate at 500 nM incubated for 30 mins by absorbance based microplate reader analysis relative to control; type: protein assay
[14] = molecular target: T3, Mushroom tyrosinase (Agaricus bisporus); assay: Inhibition of mushroom tyrosinase using L-DOPA as substrate at 500 nM incubated for 30 mins in presence of CuSO4 by absorbance based microplate reader analysis relative to control; type: protein assay
[15] = molecular target: T3, Mushroom tyrosinase (Agaricus bisporus); assay: Mixed-type inhibition of mushroom tyrosinase using L-DOPA as substrate assessed as decrease in Vmax with increase in Km upto 1.8 uM using varying concentrations of substrate by Lineweaver-Burk plot analysis; type: protein assay
[16] = molecular target: T3, Mushroom tyrosinase (Agaricus bisporus); assay: Potency index, ratio of phenylthiourea IC50 to test compound IC50 for inhibition of mushroom tyrosinase using L-tyrosine as substrate incubated for 30 mins by absorbance based microplate reader analysis; type: protein assay
[17] = molecular target: T3, Mushroom tyrosinase (Agaricus bisporus); assay: Competitive inhibition of mushroom tyrosinase using L-DOPA as substrate assessed as increase in Km with constant Vmax upto 0.2 uM using varying concentrations of substrate by Lineweaver-Burk plot analysis; type: protein assay
[18] = molecular target: T3, Mushroom tyrosinase (Agaricus bisporus); assay: Potency index, ratio of phenylthiourea IC50 to test compound IC50 for inhibition of mushroom tyrosinase; type: protein assay
[19] = molecular target: T3, Mushroom tyrosinase (Agaricus bisporus); assay: Mixed-type inhibition of mushroom tyrosinase using L-DOPA as substrate assessed as decrease in Vmax with increase in Km upto 0.2 uM using varying concentrations of substrate by Lineweaver-Burk plot analysis; type: protein assay

IC50 [2] | IC50 [4] | inhibition [8] | Ratio IC50 [9] | Ki [12] | inhibition [13] | inhibition [14] | inhibition [15] | Ratio IC50 [16] | inhibition [17] | Ratio IC50 [18] | inhibition [19] | Compound | Activity [1] | viability at 24 h, 20 µM [3] | Activity [5] | Activity [6] | Activity [7] | viability at 24 h, 5 µM [10] | viability at 24 h, 10 µM [11]
23840 nM | 14800 nM | – | – | – | – | – | – | – | – | – | – | O=[N+]([O-])c1cccc2oc(S)nc12 | 34% | 94% | Non-Toxic | – | – | – | –
13760 nM | 12250 nM | Dose-Dependent Effect | – | – | – | – | – | – | – | – | – | O=[N+]([O-])c1ccc2nc(S)oc2c1 | 49% | – | Non-Toxic | Non-Toxic | Dose-Dependent Effect | – | –
2150 nM | 2850 nM | Dose-Dependent Effect | 16 | – | – | – | – | – | – | – | – | Cc1cccc2oc(S)nc12 | 49% | – | Non-Toxic | Non-Toxic | Dose-Dependent Effect | – | –
80 nM | 240 nM | – | 440 | 58 nM | > 92% | 26% | – | – | Active | – | – | Sc1nc2ccccc2o1 | 49% | – | Non-Toxic | Non-Toxic | – | – | –

Further lines, the compound ahead of its results:

Compound | IC50 [2] | IC50 [4] | inhibition [8] | Ratio IC50 [9] | Ki [12] | inhibition [13] | inhibition [14] | inhibition [15] | Ratio IC50 [16] | inhibition [17] | Ratio IC50 [18] | inhibition [19] | Activity [1] | viability at 24 h, 20 µM [3] | Activity [5] | Activity [6] | Activity [7] | viability at 24 h, 5 µM [10] | viability at 24 h, 10 µM [11]
O=[N+]([O-])c1ccc2oc(=S)[nH]c2c1 | 5810 nM | 2410 nM | – | – | – | – | – | – | – | – | – | – | 49% | 84% | Non-Toxic | – | – | 91% | 91%
Cc1c(C)c2c(c(C)c1O)CCC(C)(C(=O)O)O2 (stereo not given) | – | – | – | – | – | – | – | – | – | – | – | – | 49% | – | – | – | – | – | –
Cc1ccc2oc(=S)[nH]c2c1 | 90 nM | 100 nM | – | – | 142 nM | > 92% | 26% | Active | 3 | – | – | – | 49% | – | Non-Toxic | Non-Toxic | – | – | –
Cc1ccc2[nH]c(=S)oc2c1 | 80 nM | 130 nM | Dose-Dependent Effect | – | 98 nM | > 92% | 26% | – | – | – | 2 | Active | 49% | – | Non-Toxic | Non-Toxic | Dose-Dependent Effect | – | –
S=c1[nH]c2ccc(Cl)cc2o1 | 6250 nM | 2020 nM | – | – | – | – | – | – | – | – | – | – | 49% | – | Non-Toxic | Non-Toxic | – | – | –
